Like-named read-outs stand apart in the source and are kept apart here.
Assays:
hTRPA1 [1] = biological target: T1, hTRPA1 (Homo sapiens, UniProt O75762, K186N); test: TRPA1 patch clamp (perforated patch, AITC-activated current); format: cell-based
T1 construct: expressed in transfected cells; host or cells: HEK293/TREx (Invitrogen), induced with tetracycline
Source text: Patch clamp experiments permit the detection of currents through the TRPA1 channel in the cell line described above. To permit recording of current at a stable level and prevent the “rundown” observed by other labs, it is necessary to use the perforated patch technique, which prevents dialysis of the cytoplasm with the pipette solution. In normal whole-cell patch clamp recordings, a glass electrode is brought into contact with a single cell and a high-resistance (gigaohm) seal is established with the cell membrane. The membrane is then ruptured to achieve the whole-cell configuration, permitting control of the voltage of the cell membrane and measurement of currents flowing across the membrane using the amplifier attached to the electrode and resulting in the replacement of cytoplasm with the pipette solution. In contrast, in the perforated patch mode, an antibiotic, amphotericin, is present in the pipette solution and diffuses into contact with the cell after the seal is achieved, over the course of several minutes. The amphotericin forms ion-permeable pores in the membrane under the pipette, permitting passage of some ions but maintaining most native cytosolic components. A perfusion system permits control of the extracellular solution, including the addition of blockers and activators of the current. The current can be activated by addition of 5 μM AITC to the solution. […] In some cases, cells were grown in low density overnight on glass coverslips. Patch clamp recordings were made in the whole-cell mode with a holding potential of −40 mV. Every 5 seconds, a voltage ramp was applied from −120 to +100 mV, 400 ms in duration. Currents elicited were quantified at −80 mV and +80 mV. […] The external solution consisted of 150 mM NaCl, 4.5 mM KCl, 3 mM MgCl2, 10 mM HEPES, […], 1 mM EGTA, pH 7.4. Upon addition of AITC, TRPA1 current was induced only in TRPA1-expressing cells and not in parental HEK293 TREx cells. Removal of the AITC stimulus causes most of the current to go away. Potential blockers were tested for ability to block both inward and outward currents in the continued presence of AITC.

hTRPA1 [2] = biological target: T1, hTRPA1; test: High throughput Ca2+ fluorescence (Fluo4) assay, AITC stimulation; format: cell-based
Outline: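 Tetracycline-induced HEK293/TREx cells loaded with 1 μM Fluo4/AM for 60 min at room temperature. Compound added for 2 min after a 4-frame baseline, then AITC; fluorescence followed ~3 min.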

hERG = hERG (Homo sapiens, UniProt Q12809); test: hERG patch clamp (Qpatch) selectivity; settings: for selectivity ratio: human, selective for TRPA1 over hERG
hERG, sequence (Q12809 whole entry): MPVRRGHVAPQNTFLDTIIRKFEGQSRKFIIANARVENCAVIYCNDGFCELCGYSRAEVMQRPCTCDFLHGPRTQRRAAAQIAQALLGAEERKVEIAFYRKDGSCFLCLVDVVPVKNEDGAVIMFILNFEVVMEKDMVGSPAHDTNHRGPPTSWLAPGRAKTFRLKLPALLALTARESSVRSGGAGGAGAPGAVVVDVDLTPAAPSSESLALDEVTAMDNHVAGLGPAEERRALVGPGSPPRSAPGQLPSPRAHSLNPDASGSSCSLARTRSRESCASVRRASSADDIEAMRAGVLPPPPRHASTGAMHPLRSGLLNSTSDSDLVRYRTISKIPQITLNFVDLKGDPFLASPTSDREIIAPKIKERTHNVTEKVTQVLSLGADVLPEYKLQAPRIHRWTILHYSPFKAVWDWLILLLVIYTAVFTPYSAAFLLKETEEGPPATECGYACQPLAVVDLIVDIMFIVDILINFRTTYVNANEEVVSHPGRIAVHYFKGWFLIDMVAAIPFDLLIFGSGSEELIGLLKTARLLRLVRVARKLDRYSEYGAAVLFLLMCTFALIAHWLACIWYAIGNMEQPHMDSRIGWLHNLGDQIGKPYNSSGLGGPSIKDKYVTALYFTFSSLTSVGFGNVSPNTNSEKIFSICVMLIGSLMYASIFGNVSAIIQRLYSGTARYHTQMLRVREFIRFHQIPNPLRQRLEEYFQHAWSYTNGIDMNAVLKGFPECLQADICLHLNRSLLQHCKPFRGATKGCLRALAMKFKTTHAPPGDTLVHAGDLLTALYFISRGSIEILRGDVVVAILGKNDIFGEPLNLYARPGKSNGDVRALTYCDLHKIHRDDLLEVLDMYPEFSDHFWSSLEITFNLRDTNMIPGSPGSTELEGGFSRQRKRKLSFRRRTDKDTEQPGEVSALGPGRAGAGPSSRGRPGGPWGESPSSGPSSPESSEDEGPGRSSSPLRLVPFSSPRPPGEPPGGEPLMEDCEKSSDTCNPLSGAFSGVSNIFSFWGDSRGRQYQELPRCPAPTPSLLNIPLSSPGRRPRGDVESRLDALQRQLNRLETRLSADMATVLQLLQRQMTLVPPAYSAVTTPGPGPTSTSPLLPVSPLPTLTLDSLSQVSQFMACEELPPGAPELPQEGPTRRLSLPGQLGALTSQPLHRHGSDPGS

hNaV1.2 = hNaV1.2 (Homo sapiens, UniProt Q99250); test: hNaV1.2 patch clamp (Qpatch) selectivity; format: cell-based
hNaV1.2, sequence (Q99250 whole entry): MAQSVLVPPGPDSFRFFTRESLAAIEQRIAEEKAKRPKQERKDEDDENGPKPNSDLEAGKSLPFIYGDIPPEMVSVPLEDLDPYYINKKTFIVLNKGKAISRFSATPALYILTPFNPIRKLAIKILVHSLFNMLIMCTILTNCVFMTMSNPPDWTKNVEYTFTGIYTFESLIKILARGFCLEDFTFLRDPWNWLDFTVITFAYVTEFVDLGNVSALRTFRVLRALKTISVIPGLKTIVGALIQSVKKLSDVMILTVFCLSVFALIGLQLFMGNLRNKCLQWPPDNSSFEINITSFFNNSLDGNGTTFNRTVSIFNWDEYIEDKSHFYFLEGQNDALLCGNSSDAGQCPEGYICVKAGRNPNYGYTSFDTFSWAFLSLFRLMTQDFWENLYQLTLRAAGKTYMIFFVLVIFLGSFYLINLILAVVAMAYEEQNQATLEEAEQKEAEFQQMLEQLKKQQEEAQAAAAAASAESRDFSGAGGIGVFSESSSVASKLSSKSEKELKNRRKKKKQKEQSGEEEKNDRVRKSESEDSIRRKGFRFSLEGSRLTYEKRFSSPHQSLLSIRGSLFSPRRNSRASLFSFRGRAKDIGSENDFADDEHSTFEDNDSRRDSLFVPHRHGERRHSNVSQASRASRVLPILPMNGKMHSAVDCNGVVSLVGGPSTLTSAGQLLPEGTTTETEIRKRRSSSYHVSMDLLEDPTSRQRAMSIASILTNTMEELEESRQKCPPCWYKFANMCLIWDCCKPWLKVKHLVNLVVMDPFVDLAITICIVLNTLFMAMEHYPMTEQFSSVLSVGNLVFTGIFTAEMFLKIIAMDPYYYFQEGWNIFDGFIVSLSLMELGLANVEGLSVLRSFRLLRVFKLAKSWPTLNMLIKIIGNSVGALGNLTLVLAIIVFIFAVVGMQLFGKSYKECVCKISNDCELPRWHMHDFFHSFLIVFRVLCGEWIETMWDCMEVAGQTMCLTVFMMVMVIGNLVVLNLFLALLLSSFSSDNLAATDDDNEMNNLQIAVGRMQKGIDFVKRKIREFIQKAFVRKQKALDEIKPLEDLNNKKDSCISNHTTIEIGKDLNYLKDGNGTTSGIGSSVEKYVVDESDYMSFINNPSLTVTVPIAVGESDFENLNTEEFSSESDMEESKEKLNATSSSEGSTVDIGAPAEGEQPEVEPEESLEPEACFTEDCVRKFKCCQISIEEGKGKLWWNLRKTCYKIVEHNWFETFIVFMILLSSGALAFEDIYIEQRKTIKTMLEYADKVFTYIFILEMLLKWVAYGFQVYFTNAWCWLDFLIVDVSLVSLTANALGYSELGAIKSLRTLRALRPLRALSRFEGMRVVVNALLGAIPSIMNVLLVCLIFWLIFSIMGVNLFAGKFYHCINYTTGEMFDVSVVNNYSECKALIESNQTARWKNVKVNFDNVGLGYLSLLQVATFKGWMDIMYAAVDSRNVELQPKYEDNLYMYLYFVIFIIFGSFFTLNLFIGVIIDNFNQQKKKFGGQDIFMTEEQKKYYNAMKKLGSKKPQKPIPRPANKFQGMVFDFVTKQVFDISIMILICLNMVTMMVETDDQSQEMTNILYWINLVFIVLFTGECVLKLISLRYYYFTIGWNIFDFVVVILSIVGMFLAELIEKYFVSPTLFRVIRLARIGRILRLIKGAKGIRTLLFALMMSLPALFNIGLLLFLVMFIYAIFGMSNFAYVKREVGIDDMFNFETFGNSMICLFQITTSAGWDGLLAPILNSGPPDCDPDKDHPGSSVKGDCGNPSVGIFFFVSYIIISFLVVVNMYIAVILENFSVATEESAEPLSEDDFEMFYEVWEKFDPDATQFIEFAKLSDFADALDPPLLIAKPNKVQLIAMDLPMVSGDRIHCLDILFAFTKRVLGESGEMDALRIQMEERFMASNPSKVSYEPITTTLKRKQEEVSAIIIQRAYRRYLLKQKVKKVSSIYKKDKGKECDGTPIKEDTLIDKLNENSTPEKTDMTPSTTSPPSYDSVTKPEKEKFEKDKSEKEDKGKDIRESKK

[3] = Table 2, inward current, read-out: hTRPA1 Patch Inwd IC50
[4] = Table 2, read-out: hTRPA1 Fluor IC50
[5] = Table 2, read-out: hNaV1.2 IC50
[6] = Table 1, read-out: hTRPA1 Patch IC50
[7] = Table 1, read-out: hTRPA1 Fluo4 IC50

T1 sequence (O75762 whole entry K186N): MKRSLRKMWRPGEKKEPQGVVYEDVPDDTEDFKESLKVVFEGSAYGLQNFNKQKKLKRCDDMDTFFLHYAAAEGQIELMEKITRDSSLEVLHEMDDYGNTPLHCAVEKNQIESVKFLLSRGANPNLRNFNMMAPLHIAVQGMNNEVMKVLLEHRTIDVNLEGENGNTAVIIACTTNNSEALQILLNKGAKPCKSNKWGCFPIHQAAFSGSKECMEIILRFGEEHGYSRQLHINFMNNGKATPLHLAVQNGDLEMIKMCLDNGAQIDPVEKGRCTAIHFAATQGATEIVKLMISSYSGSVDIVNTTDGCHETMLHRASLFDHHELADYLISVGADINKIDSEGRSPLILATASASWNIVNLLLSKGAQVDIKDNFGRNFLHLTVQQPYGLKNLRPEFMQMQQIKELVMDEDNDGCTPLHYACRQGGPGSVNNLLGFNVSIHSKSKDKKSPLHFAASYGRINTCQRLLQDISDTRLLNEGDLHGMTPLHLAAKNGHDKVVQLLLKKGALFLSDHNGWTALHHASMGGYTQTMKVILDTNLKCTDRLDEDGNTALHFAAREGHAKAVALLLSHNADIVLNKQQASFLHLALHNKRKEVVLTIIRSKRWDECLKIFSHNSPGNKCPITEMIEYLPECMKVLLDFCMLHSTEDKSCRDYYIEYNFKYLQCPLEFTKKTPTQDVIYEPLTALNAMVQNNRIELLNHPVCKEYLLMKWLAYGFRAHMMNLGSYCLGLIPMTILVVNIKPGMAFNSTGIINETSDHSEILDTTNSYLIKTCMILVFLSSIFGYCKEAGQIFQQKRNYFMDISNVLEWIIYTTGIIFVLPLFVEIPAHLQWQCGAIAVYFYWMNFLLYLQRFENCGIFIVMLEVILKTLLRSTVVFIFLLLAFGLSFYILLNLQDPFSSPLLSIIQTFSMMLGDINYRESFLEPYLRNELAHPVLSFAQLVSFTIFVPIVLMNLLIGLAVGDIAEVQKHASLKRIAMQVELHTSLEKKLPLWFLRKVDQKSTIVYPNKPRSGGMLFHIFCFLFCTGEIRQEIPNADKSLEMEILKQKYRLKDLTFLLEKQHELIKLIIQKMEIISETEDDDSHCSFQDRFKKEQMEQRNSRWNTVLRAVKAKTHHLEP

IC50 (hTRPA1 [1]; [3])	IC50 (hTRPA1 [2]; [4])	IC50 (hTRPA1 [1]; [6])	IC50 (hTRPA1 [2]; [7])	SMILES	other results
≤ 5000 nM	≤ 5 µM	–	–	Cn1c(=O)c2c(ncn2CC(=O)Nc2ccc(Br)cc2)n(C)c1=O [Compound 219]	selective for TRPA1 over hERG (hERG; Table 2): ≥ 15 fold; IC50 (hERG; hERG IC50 (nM), Table 2): ≥ 20000 nM; selective for TRPA1 over NaV1.2 (hNaV1.2; Table 2): ≥ 25 fold; IC50 (hNaV1.2; [5]): ≥ 30 µM
≤ 10000 nM	≤ 5 µM	–	–	Cn1c(=O)c2c(ncn2CC(=O)Nc2cccc(C(F)(F)F)c2)n(C)c1=O [Compound 226]	IC50 (hERG; hERG IC50 (nM), Table 2): > 10000 nM; selectivity ratio (hERG; Table 2): ≥ 2; selective for TRPA1 over NaV1.2 (hNaV1.2; Table 2): ≥ 5 fold; IC50 (hNaV1.2; [5]): ≥ 30 µM
–	–	≤ 5000 nM	> 10 µM	CCOC(=O)C1=C(c2ccccc2)NC(=S)NC1c1ccccc1Cl (centres unmarked)	IC50 (hERG; hERG Qpatch IC50 (nM), Table 1): ≥ 20000 nM; selectivity ratio (hERG; Table 1): ≥ 10
≤ 500 nM	≤ 5 µM	–	–	CCOc1ccc(Oc2ccc(NC(=O)Cn3cnc4c3c(=O)n(C)c(=O)n4C)cc2)cc1 [Compound 284]	IC50 (hERG; hERG IC50 (nM), Table 2): ≤ 5000 nM; selectivity ratio (hERG; Table 2): ≥ 10
–	–	≤ 5000 nM	> 10 µM	CCOC(=O)C1=C(c2ccccc2)NC(=S)NC1c1ccccc1Br (centres unmarked)	IC50 (hERG; hERG Qpatch IC50 (nM), Table 1): > 10000 nM; selectivity ratio (hERG; Table 1): ≥ 5
≤ 1000 nM	≤ 5 µM	–	–	CCC(C)c1ccc(NC(=O)Cn2cnc3c2c(=O)n(C)c(=O)n3C)cc1 (centres unmarked) [Compound 215]	IC50 (hERG; hERG IC50 (nM), Table 2): ≥ 10000 nM; selectivity ratio (hERG; Table 2): ≥ 25; selective for TRPA1 over NaV1.2 (hNaV1.2; Table 2): ≥ 55 fold; IC50 (hNaV1.2; [5]): ≥ 30 µM
≤ 500 nM	≤ 1 µM	–	–	Cn1c(=O)c2c(ncn2CC(=O)Nc2nc(-c3ccc(Br)cc3)cs2)n(C)c1=O [Compound 232]	IC50 (hERG; hERG IC50 (nM), Table 2): ≥ 30000 nM; selectivity ratio (hERG; Table 2): ≥ 75; selective for TRPA1 over NaV1.2 (hNaV1.2; Table 2): ≥ 75 fold; IC50 (hNaV1.2; [5]): ≥ 30 µM
> 10000 nM	≤ 10 µM	–	–	Cc1cc(Br)ccc1NC(=O)Cn1cnc2c1c(=O)n(C)c(=O)n2C [Compound 204]	–
≤ 500 nM	≤ 5 µM	–	–	CCc1ccc(-c2csc(NC(=O)Cn3cnc4c3c(=O)n(C)c(=O)n4C)n2)cc1 [Compound 271]	IC50 (hERG; hERG IC50 (nM), Table 2): ≥ 30000 nM; selectivity ratio (hERG; Table 2): ≥ 150
–	–	> 10000 nM	> 10 µM	CCOC(=O)C1=C(c2ccccc2)NC(=S)NC1c1cc(C)ccc1C (centres unmarked)	–
> 10000 nM	≤ 10 µM	–	–	Cn1c(=O)c2c(ncn2CC(=O)Nc2ccc(F)cc2)n(C)c1=O [Compound 209]	–
≤ 10000 nM	≤ 5 µM	–	–	CCc1ccc(NC(=O)C(C)n2cnc3c2c(=O)n(C)c(=O)n3C)cc1 (centres unmarked) [Compound 299]	–
≤ 1000 nM	≤ 10 µM	–	–	Cn1c(=O)c2c(ncn2CC(=O)Nc2ccc(Cl)c(Cl)c2)n(C)c1=O [Compound 217]	IC50 (hERG; hERG IC50 (nM), Table 2): ≥ 20000 nM; selectivity ratio (hERG; Table 2): ≥ 45; selective for TRPA1 over NaV1.2 (hNaV1.2; Table 2): ≥ 50 fold; IC50 (hNaV1.2; [5]): ≥ 30 µM
≤ 1000 nM	≤ 5 µM	–	–	Cn1c(=O)c2c(ncn2CC(=O)Nc2ccc(Nc3ccccc3)cc2)n(C)c1=O [Compound 250]	–
–	–	≤ 10000 nM	≤ 5 µM	CCOc1ccc(C2NC(=S)NC(C)=C2C(=O)OC)cc1 (centres unmarked)	–
≤ 1000 nM	≤ 5 µM	–	–	CC(C(=O)Nc1ccc(Cl)cc1)n1cnc2c1c(=O)n(C)c(=O)n2C (centres unmarked) [Compound 300]	–
≤ 5000 nM	≤ 5 µM	–	–	Cn1c(=O)c2c(ncn2CC(=O)Nc2ccc(Br)cc2F)n(C)c1=O [Compound 371]	–
–	–	> 10000 nM	≤ 5 µM	COC(=O)C1=C(C)NC(=S)NC1c1ccccc1 (centres unmarked)	–
≤ 10000 nM	> 10 µM	–	–	CC(C)Cc1nnc(NC(=O)Cn2cnc3c2c(=O)n(C)c(=O)n3C)s1 [Compound 235]	–
–	–	≤ 5000 nM	≤ 5 µM	COC(=O)C1=C(c2ccccc2)NC(=S)NC1c1ccccc1 (centres unmarked)	–
≤ 10000 nM	≤ 5 µM	–	–	Cn1c(=O)c2c(ncn2CC(=O)Nc2ccc(F)c(Cl)c2)n(C)c1=O [Compound 281]	–
≤ 1000 nM	≤ 5 µM	–	–	COc1cc([N+](=O)[O-])ccc1NC(=O)Cn1cnc2c1c(=O)n(C)c(=O)n2C [Compound 229]	–
≤ 10000 nM	≤ 10 µM	–	–	Cn1c(=O)c2c(ncn2CC(=O)Nc2ccc(C#N)cc2)n(C)c1=O [Compound 214]	–
≤ 5000 nM	≤ 1 µM	–	–	Cn1c(=O)c2c(ncn2CC(=O)Nc2ccc(OCc3ccccc3)cc2)n(C)c1=O [Compound 224]	–

IC50 (hTRPA1 [1]; [3])	IC50 (hTRPA1 [2]; [4])	IC50 (hTRPA1 [1]; [6])	IC50 (hTRPA1 [2]; [7])	SMILES	other results
> 10000 nM	> 10 µM	–	–	Cn1c(=O)c2c(ncn2CC(=O)NC(c2ccccc2)c2ccccc2)n(C)c1=O [Compound 203]	–
≤ 5000 nM	≤ 5 µM	–	–	Cn1c(=O)c2c(ncn2CC(=O)Nc2ccc3c(c2)OC2(CCCC2)O3)n(C)c1=O [Compound 344]	–
–	–	≤ 5000 nM	≤ 5 µM	COC(=O)C1=C(C)N(C)C(=O)NC1c1cc(O)ccc1Br (centres unmarked)	–
> 10000 nM	> 10 µM	–	–	Cn1c(=O)c2c(ncn2CC(=O)Nc2ccc(S(N)(=O)=O)cc2)n(C)c1=O [Compound 228]	–
–	–	> 10000 nM	≤ 10 µM	CCOC(=O)C1=C(C)NC(=S)NC1c1cccc(O)c1 (centres unmarked)	–
≤ 5000 nM	≤ 5 µM	–	–	Cn1c(=O)c2c(ncn2CC(=O)Nc2ccc(Br)cc2)n(C)c1=O [Compound 202]	selective for TRPA1 over hERG (hERG; Table 2): ≥ 5 fold; IC50 (hERG; hERG IC50 (nM), Table 2): > 10000 nM
–	–	≤ 1000 nM	≤ 5 µM	CCOC(=O)C1=C(C)NC(=S)NC1c1cccc(OCC)c1 (centres unmarked)	–
≤ 10000 nM	> 10 µM	–	–	Cc1ccc(F)cc1NC(=O)Cn1cnc2c1c(=O)n(C)c(=O)n2C [Compound 277]	–
> 10000 nM	> 10 µM	–	–	Cn1c(=O)c2c(ncn2CC(=O)Nc2ccc(C(N)=O)cc2)n(C)c1=O [Compound 212]	–
–	–	> 10000 nM	> 10 µM	CCOC(=O)C1=C(c2ccccc2)NC(=S)NC1c1ccc(OC)cc1 (centres unmarked)	–
≤ 1000 nM	> 10 µM	–	–	Cc1ccc(NC(=O)C(C)n2cnc3c2c(=O)n(C)c(=O)n3C)cc1 (centres unmarked) [Compound 315]	–
> 10000 nM	≤ 5 µM	–	–	Cn1c(=O)c2c(ncn2CC(=O)NCC(C)(c2ccccc2)c2ccccc2)n(C)c1=O [Compound 348]	–
≤ 1000 nM	≤ 5 µM	–	–	Cn1c(=O)c2c(ncn2CC(=O)Nc2cccc(I)c2)n(C)c1=O [Compound 295]	–
≤ 10000 nM	≥ 20 µM	–	–	Cn1c(=O)c2c(ncn2CC(=O)Nc2ccc([N+](=O)[O-])cc2)n(C)c1=O [Compound 210]	–
≤ 1000 nM	≤ 5 µM	–	–	Cn1c(=O)c2c(ncn2CC(=O)Nc2ccc(Cl)cc2)n(C)c1=O [Compound 251]	–
–	–	≤ 1000 nM	≤ 5 µM	COC(=O)C1=C(C)NC(=S)NC1c1c(Cl)cccc1Cl (centres unmarked)	–
–	–	≤ 5000 nM	≤ 5 µM	COC(=O)C1=C(C)NC(=S)NC1c1cc(C)ccc1C (centres unmarked)	–
–	–	≤ 500 nM	≤ 5 µM	CC1=C(C(=O)OC(C)C)C(c2ccc(C)c(Br)c2)NC(=O)N1 (centres unmarked)	–
≤ 5000 nM	≤ 5 µM	–	–	Cc1ccc2nc(NC(=O)Cn3cnc4c3c(=O)n(C)c(=O)n4C)sc2c1 [Compound 233]	–
≤ 10000 nM	> 10 µM	–	–	Cc1ccccc1CNC(=O)Cn1cnc2c1c(=O)n(C)c(=O)n2C [Compound 313]	–
> 10000 nM	≥ 20 µM	–	–	CN(C)c1ccc(NC(=O)Cn2cnc3c2c(=O)n(C)c(=O)n3C)cc1 [Compound 201]	–
–	–	≤ 1000 nM	≤ 5 µM	COC(=O)C1=C(C)N(C)C(=O)NC1c1ccc(F)c(F)c1 (centres unmarked)	–
> 10000 nM	≤ 10 µM	–	–	Cn1c(=O)c2c(ncn2CC(=O)Nc2ccc3ccccc3c2)n(C)c1=O [Compound 213]	–
≤ 10000 nM	> 10 µM	–	–	Cn1c(=O)c2c(ncn2CC(=O)Nc2c(Cl)cccc2Cl)n(C)c1=O [Compound 305]	–

SMILES	IC50 (hTRPA1 [1]; [3])	IC50 (hTRPA1 [2]; [4])	IC50 (hTRPA1 [1]; [6])	IC50 (hTRPA1 [2]; [7])	other results
CCOC(=O)C1=C(c2ccccc2)NC(=S)NC1c1cc(O)ccc1Br (centres unmarked) [drawing 49]	–	–	≤ 1000 nM	≤ 1 µM	IC50 (hERG; hERG Qpatch IC50 (nM), Table 1): ≥ 20000 nM; selectivity ratio (hERG; Table 1): ≥ 30; selective for TRPA1 over NaV1.2 (hNaV1.2; Table 1): ≥ 40 fold; IC50 (hNaV1.2; Table 1, read-out: hNaV1.2 Qpatch IC50): ≥ 30 µM
CCOC(=O)C1=C(C)NC(=S)NC1c1cccc(OC)c1 (centres unmarked)	–	–	–	≤ 5 µM	IC50 (hTRPA1 [1]; hTRPA1 Patch IC50 (nM), Table 1): ≤ 10000 nM
